Assay results: US11395798B2, “O/W type emulsion” (NOF CORPORATION, priority 2015, dated 2022)

Columns and labels:
[1] = water/octanol; cited from earlier work
[2] = particle size distribution by dynamic light scattering (Zetasizer Nano ZS); assay type: physicochemical
Experimental: The particle size distribution of the prepared emulsion was measured by dynamic light scattering using Zetasizer Nano ZS. The measurement conditions were 1 mM emulsion (40 μL) at 25° C. As a result, in all compositions, the volume median diameter was not more than 100 nm and, when a linear head was used (i.e., the formula (I) wherein X^a and X^b are each X^1), the particle size was not more than 50 nm. The drug recovery rate was not less than 85% (FIG. 1, Table 2).
EPC and Cholesterol were mixed to achieve 1000 nmol and a PEG lipid was added. Chloroform in an amount equal to that of the lipid ethanol solution was added and the mixture was dried under a nitrogen blow. PBS (1 mL) was added to the lipid membrane after drying and the mixture was stood for 10 min and sonicated by a bath-type sonicator for 3 min to give a particle suspension. The particle size distribution of the prepared particles was measured by dynamic light scattering in the same manner as in Example 1.
The particle size distribution of the produced emulsion solution was measured by dynamic light scattering similarly to Example 1. As a result, when DOPC was used, the volume median diameter was near 40 nm irrespective of pH.
An ethanol solution containing 500 nmol as a total of cationic B-2, DOPE, and Cholesterol was prepared, and a PEG lipid was added in the above-mentioned amount. Ethanol was added to make the total amount 200 μL, and the mixture was stood at ice temperature for 15 min. A similarly ice-cooled malic acid buffer (20 mM, pH 3.0, 0-1000 mM NaCl) (200 μL) was mixed within 3 sec under vortex. PBS (NISSUI) (3600 μL) was immediately added thereto. The mixture was subjected to ultrafiltration using Amicon Ultra (Millipore). The centrifugation conditions were 1000 G, 25° C. An operation including addition of 3200 μL of PBS after centrifugation for 10 min was repeated twice and the sample was concentrated to about 500 μL. The concentrate was diluted with PBS to a mass of 1000 mg to give a 0.5 mM (lipid concentration) emulsion. The particle size distribution of the produced emulsion solution was measured by dynamic light scattering similarly to Example 1.
The volume median diameter and the surface potential were measured using the dynamic light scattering (Zetasizer Nano; Malvern) in the same manner as in Example 1.
The average particle size of the produced particles was measured in the same manner as in Example 1 and the results are shown in Table 7.

[3] = O/W emulsion cationic lipid:DOPE:Cholesterol=3:4:3, 4-Methylumbelliferon 10 mol %, DMG-PEG2000 10 mol %, DSG-PEG2000 2.5 mol %
[4] = O/W emulsion cationic lipid:DOPE:Cholesterol=3:4:3, 4-Methylumbelliferon 10 mol %, DMG-PEG2000 10 mol %, DSG-PEG2000 2.5 mol %, 1 mM, 25° C.

Row | Compound | Log Pow [1] | other results
1 | CCC(C)n1ncn(-c2ccc(N3CCN(c4ccc(OCC5COC(Cn6cncn6)(c6ccc(Cl)cc6Cl)O5)cc4)CC3)cc2)c1=O (centres unmarked) [itraconazole] | 5.00 | 
2 | Cc1cccc(Nc2ccccc2C(=O)O)c1C [mefenamic acid] | 4.83 | 
3 | c1ccc2c(c1)Sc1ccccc1N2CC1CN2CCC1CC2 (centres unmarked) [mequitazine] | 5.20 | 
4 | C#C[C@]1(O)CC[C@H]2[C@@H]3CCc4cc(OC)ccc4[C@H]3CC[C@@]21C [mestranol] | 4.94 | 
5 | CCCCC(=O)O[C@]1(C(=O)CO)[C@@H](C)C[C@H]2[C@@H]3CCC4=CC(=O)C=C[C@]4(C)[C@@]3(F)[C@@H](O)C[C@@]21C [betamethasone valerate] | 4.14 | 
6 | CCC(=O)OCC(=O)[C@@]1(OC(=O)CC)[C@@H](C)C[C@H]2[C@@H]3CCC4=CC(=O)C=C[C@]4(C)[C@@]3(Cl)[C@@H](O)C[C@@]21C [beclopetasone propionate] | 4.07 | 
7 | retinol acetate | 7.19 | 
8 | COc1ccccc1OCCNCC(O)COc1cccc2[nH]c3ccccc3c12 (centres unmarked) [carvedilol] | 4.07 | 
9 | CCc1oc2ccccc2c1C(=O)c1cc(Br)c(O)c(Br)c1 [benzbromarone] | 6.65 | 
10 | CCOc1nc2cccc(C(=O)OC(C)OC(=O)OC3CCCCC3)c2n1Cc1ccc(-c2ccccc2-c2nnn[nH]2)cc1 (centres unmarked) [candesartancilexetil] | 7.21 | 
11 | O=c1[nH]c2ccccc2n1C1CCN(CCCC(c2ccc(F)cc2)c2ccc(F)cc2)CC1 [pimozide] | 5.76 | 
12 | CCCCCCCC/C=C\CCCCCCCC(=O)OCCCN(C)CCSSCCN(C)CCCOC(=O)CCCCCCC/C=C\CCCCCCCC [O-C3M] |  | PdI [2, 3]: 0.228; volume median diameter [2, 4]: 38.4 nm
13 | CCCCC/C=C\C/C=C\CCCCCCCC(=O)OCCN1CCN(CCSSCCN2CCN(CCOC(=O)CCCCCCC/C=C\C/C=C\CCCCC)CC2)CC1 [L-PZ4C2] |  | PdI [2, 3]: 0.092; volume median diameter [2, 4]: 75.8 nm
14 | C#C[C@]1(O)CC[C@H]2[C@@H]3CCC4=Cc5oncc5C[C@]4(C)[C@H]3CC[C@@]21C [danazol] | 4.94 | 
15 | CCCCCCCC/C=C\CCCCCCCC(=O)OC[C@H](COP(=O)(O)OCCN)OC(=O)CCCCCCC/C=C\CCCCCCCC [DOPE, dioleoylphosphatidylethanolamine] |  | volume median diameter ([2]; B-2:helper lipid:Cholesterol=3:4:3, 15 mol % DMG-PEG2000, malic acid buffer pH 4.0): 90.2 nm; PdI ([2]; B-2:helper lipid:Cholesterol=3:4:3, 15 mol % DMG-PEG2000, pH 3.0): 0.191; PdI ([2]; B-2:helper lipid:Cholesterol=3:4:3, 15 mol % DMG-PEG2000, pH 4.0): 0.078
16 | C=C1CC[C@H](O)C/C1=C/C=C1\CCC[C@]2(C)[C@@H]([C@H](C)/C=C/[C@H](C)C(C)C)CC[C@@H]12 [ergocalciferol] | 9.15 | 
17 | Cc1c(C)c2c(c(C)c1OC(=O)CCC(=O)OCCC1CCN(CCSSCCN3CCC(CCOC(=O)CCC(=O)Oc4c(C)c(C)c5c(c4C)CCC(C)(CCCC(C)CCCC(C)CCCC(C)C)O5)CC3)CC1)CCC(C)(CCCC(C)CCCC(C)CCCC(C)C)O2 (centres unmarked) [TS-P4C2] |  | PdI [2, 3]: 0.063; volume median diameter [2, 4]: 87.9 nm
18 | tocopherol | 10.96 | 
19 | COC1(O[C@H]2CC[C@H]3[C@@H]4CC[C@H]5C[C@@H]6S[C@@H]6C[C@]5(C)[C@H]4CC[C@]23C)CCCC1 [mepitiostane] | 6.89 | 
20 | C#C[C@]1(O)CC[C@H]2[C@@H]3CCc4cc(O)ccc4[C@H]3CC[C@@]21C [ethinylestradiol] | 4.11 | 
21 | O=C(COCCOCCOCC(=O)Nc1c(I)cc(I)c(C(=O)O)c1I)Nc1c(I)cc(I)c(C(=O)O)c1I [iotroxatic acid] | 4.32 | 
22 | CCCCCCCCCCCCCCCC(=O)OC/C=C(C)/C=C/C=C(C)/C=C/C1=C(C)CCCC1(C)C [retinol palmitate] | 14.32 | 
23 | COc1ccc2c(c1)c(CC(=O)O)c(C)n2C(=O)c1ccc(Cl)cc1 [indomethacin] | 4.25 | 
24 | C[C@H](CCC(=O)O)[C@H]1CC[C@H]2[C@@H]3[C@@H](O)C[C@@H]4C[C@H](O)CC[C@]4(C)[C@H]3CC[C@]12C [ursodeoxycholic acid] | 4.76 | 
25 | CC(C)(C)c1ccc(C(=O)CCCN2CCC(OC(c3ccccc3)c3ccccc3)CC2)cc1 [ebastine] | 6.81 | 

Row | Compound | Log Pow [1] | other results
26 | COc1ccc2c(c1)c(CC(=O)OCC(=O)O)c(C)n2C(=O)c1ccc(Cl)cc1 [acemetacin] | 4.49 | 
27 | CCCCCCC(=O)OCCN1CCN(CCCN2c3ccccc3Sc3ccc(C(F)(F)F)cc32)CC1 [fluphenazine enanthate] | 7.29 | 
28 | C=CC[C@@H]1/C=C(\C)C[C@H](C)C[C@H](OC)[C@H]2O[C@@](O)(C(=O)C(=O)N3CCCC[C@H]3C(=O)O[C@H](/C(C)=C/[C@@H]3CC[C@@H](O)[C@H](OC)C3)[C@H](C)[C@@H](O)CC1=O)[C@H](C)C[C@@H]2OC [tacrolimus] | 4.79 | 
29 | C=C1CC[C@H](O)C/C1=C/C=C1\CCC[C@]2(C)[C@@H]([C@H](C)CCCC(C)C)CC[C@@H]12 [cholecalciferol] | 9.08 | 
30 | CCCCC/C=C\C/C=C\CCCCCCCC(=O)OCCCN(C)CCSSCCN(C)CCCOC(=O)CCCCCCC/C=C\C/C=C\CCCCC [B-2-3] |  | PdI [2, 3]: 0.419; volume median diameter [2, 4]: 34.3 nm
31 | CCC(C)(Oc1ccc(C2(c3ccc(OC(C)(CC)C(=O)O)cc3)CCCCC2)cc1)C(=O)O (centres unmarked) [clinofibrate] | 6.33 | 
32 | CC(C)Oc1ccc2c(=O)c(-c3ccccc3)coc2c1 [ipriflavone] | 4.25 | 
33 | CCC(=O)O[C@@H]1CC(=O)O[C@H](C)C/C=C/C=C/[C@H](OC(C)=O)[C@H](C)C[C@H](CC=O)[C@H](O[C@@H]2O[C@H](C)[C@@H](O[C@H]3C[C@@](C)(OC(C)=O)[C@@H](OC(=O)CC)[C@H](C)O3)[C@H](N(C)C)[C@H]2O)[C@H]1OC [midecamycin acetate] | 5.58 | 
34 | CCCC(=O)OC[C@@H](OC(=O)CCC)[C@@H](OC(=O)CCC)[C@H](Cn1c2nc(=O)[nH]c(=O)c-2nc2cc(C)c(C)cc21)OC(=O)CCC [riboflavin butyrate] | 6.25 | 
35 | CC(C(=O)O)c1ccc2c(c1)CC(=O)c1ccccc1S2 (centres unmarked) [zaltoprofen] | 4.25 | 
36 | Clc1ccccc1C(c1ccccc1)(c1ccccc1)n1ccnc1 [clotrimazole] | 4.93 | 
37 | CC(C)=CCN1CCC2(C)c3cc(O)ccc3CC1C2C (centres unmarked) [pentazocine] | 4.15 | 
38 | CCCCCCCCCCCCCCCC(=O)OC[C@@H](NC(=O)C(Cl)Cl)[C@H](O)c1ccc([N+](=O)[O-])cc1 [chloramphenicol palmitate] | 8.69 | 
39 | COC(=O)[C@H]1[C@H]2C[C@@H]3c4[nH]c5cc(OC)ccc5c4CCN3C[C@H]2C[C@@H](OC(=O)c2cc(OC)c(OC)c(OC)c2)[C@@H]1OC [reserpine] | 4.45 | 
40 | Cc1cc(O)c2c(c1)O[C@@]1(C)CC[C@H]3C(C)(C)CCC[C@]34CO[C@@H]2[C@H]41 [siccanin] | 6.10 | 
41 | Cc1cccc(N(C)C(=S)Oc2ccc3ccccc3c2)c1 [tolnaftate] | 5.14 | 
42 | CC(C)=CCC/C(C)=C/CC/C(C)=C/CC/C(C)=C/CC1=C(C)C(=O)c2ccccc2C1=O [menatetrenone] | 8.79 | 
43 | CC(=O)Oc1c(C)c(C)c2c(c1C)CCC(C)(CCC[C@H](C)CCC[C@H](C)CCCC(C)C)O2 (some centres unmarked) [tocopheryl acetate] | 10.69 | 
44 | [H]/N=C(\N/C(=N/[H])NCCCCCCNC(=N)NC(=N)Nc1ccc(Cl)cc1)Nc1ccc(Cl)cc1 [chlorhexidine] | 4.58 | 
45 | COC(=O)C1=C(C)NC(C)=C(C(=O)OC2CCCN(Cc3ccccc3)C2)C1c1cccc([N+](=O)[O-])c1 (centres unmarked) [benidipine] | 5.56 | 
46 | COC1=C(OC)C(=O)C(C/C=C(\C)CC/C=C(\C)CC/C=C(\C)CC/C=C(\C)CC/C=C(\C)CC/C=C(\C)CC/C=C(\C)CC/C=C(\C)CC/C=C(\C)CCC=C(C)C)=C(C)C1=O [ubidecarenone] | 19.12 | 
47 | CCCCCCCCCCCCCCCC(=O)Oc1ccc2c(C)cc(=O)oc2c1 [4-methylumbelliferone palmitate] | 7.92 | 
48 | CC1=C(C/C=C(\C)CCC[C@H](C)CCC[C@H](C)CCCC(C)C)C(=O)c2ccccc2C1=O [phytonadione] | 10.31 | 
49 | c1ccc(-c2ccc(C(c3ccccc3)n3ccnc3)cc2)cc1 (centres unmarked) [bifonazole] | 4.69 | 
50 | C[C@]12CC[C@@H]3c4ccc(OC(=O)c5ccccc5)cc4CC[C@H]3[C@@H]1CC[C@@H]2O [estradiol benzoate] | 5.10 | 
